{"source": "PubChem BioAssay AID2060511", "about": "(Molecular Pharmacology Branch, DTP, NCI, 2025)", "system": "422866-222-R5-J1-PDC spheroids with HUVEC/MSC, viability", "assay": "Anticancer human tumor 422866-222-R5-J1-PDC patient-derived pancreatic adenocarcinoma cell line growth inhibition [GQUAD]", "details": "for viability, T/C: stronger effect = lower value", "from_the_text": "DNA G-quadruplex Stabilizer Agents in Combinations in Complex Spheroids\nA high-throughput screen of multi-cell type tumor spheroids was designed to identify active combinations of DNA G-quadruplex stabilizer agents and targeted small molecules. Complex spheroids include a stromal component modeled by human endothelial cells (HUVEC) and fibroblasts modeled by human mesenchymal stem cells (MSCs). The concentration ranges selected for each drug and investigational agent were based upon clinically achievable concentrations if the clinical Cmax of the agent was known.\nCompounds. The drugs and investigational agents: pidnarulex (CX-5461; NSC782164), APTO-253 (NSC789042), BRACO-19 (NSC847499), peposertib (NSC802822), ceralasertib (NSC780249), elimusertib (NSC800525), camonsertib (NSC841442), AZD-1390 (NSC803789), olaparib (NSC753686), talazoparib (NSC767125), ART-558 (NSC835418), sotorasib (NSC818433), MRTX-1133 (NSC836407), SN-38 (NSC673596), topotecan (NSC609699), etoposide (NSC141540), doxorubicin (NSC123127), gemcitabine (NSC613327), 5-fluorouracil (NSC19893), paclitaxel (NSC125973), vemurafenib (NSC761431), panobinostat (NSC761190), R-306465 (JNJ-16241199; NSC773264), adavosertib (NSC754352), TP-3654 (NSC805149), carboplatin (NSC241240), KSQ-4279 (NSC840948), and staurosporine (NSC755774) were obtained from the National Cancer Institute (NCI) Developmental Therapeutics Program Chemical Repository (34). The FDA-approved anticancer drug set is available from the NCI Developmental Therapeutics Program. […] The stock solutions were prepared in dimethyl sulfoxide (DMSO, Sigma-Aldrich, St. Louis, MO, cat. D2650) at 800-fold the tested concentration and stored at -70 degrees C prior to their use. All drugs and investigational agents were tested over a range starting from a high concentration at or near the clinical Cmax and decreasing in half-log increments. If the clinical Cmax for an agent had not been determined, the highest concentration tested was 10 microM.\n2.3 Cell Culture. All cells were maintained in an incubator at 37 degrees C and 5% CO2 with 95% humidity. The PDC lines were cultured according to standard operating procedures established by the NCI PDMR. All PDCs were thawed and cultured in Matrigel-coated flasks prepared with a working solution of 1X Ham's F-12 nutrient mix, without supplementation (Invitrogen, cat. 11765054), 100 U/mL penicillin-streptomycin (Invitrogen, cat. 15140122), and 2.5% Matrigel (Corning Inc., cat. 354248) for the first three passages. The 857933-349-R-J2-PDC line was cultured in 6C/Colon 1B media, which includes advanced DMEM/F-12 (Thermo Fisher Scientific, cat. 12634028), 10 mM HEPES (Thermo Fisher Scientific, cat. 15630080), 1X GlutaMAX supplement (Thermo Fisher Scientific, cat. 35050061), 0.1 mg/mL primocin (InvivoGen, cat. ant-pm-2), 10% defined fetal bovine serum, heat inactivated (HyClone Laboratories Inc., cat. SH30070.03HI), 50% L-WRN conditioned media (ATCC, cat. CRL-3276), 1.25 mM N-Acetyl-L-cysteine (Sigma-Aldrich, cat. A9165), 10 mM nicotinamide (Sigma-Aldrich, cat. N0636), 1X B-27 supplement (Thermo Fisher Scientific, cat. 17504044), 1X N-2 supplement (Thermo Fisher Scientific, cat. 17502048), 10 microM Y-27632 dihydrochloride (Tocris Bioscience, cat. 1254), and 50 ng/mL human EGF recombinant protein (Thermo Fisher Scientific, cat. PHG0311). The 485176-168-R4-J1-PDC line was cultured in Panc media, which includes all 6C/Colon 1B media components plus 100 ng/mL human FGF-10 (Thermo Fisher Scientific, cat. 100-26), 500 nM SB-431542 (Selleckchem, cat. S1067), and gastrin (Tocris, cat. 3006).\n[…]", "note": "Values joined by “and” are separate entries in the source; they are usually repeats but may differ in a detail not shown here. Equal entries are not always repeated.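 Note: spheroids exposed to compounds for seven days before reading.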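 Throughout, for viability, T/C: percent viability relative to DMSO vehicle control taken as 100%.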"}
{"molecule": "CCc1c2c(nc3ccc(O)cc13)-c1cc3c(c(=O)n1C2)COC(=O)[C@]3(O)CC", "values": [{"measurement": "viability, T/C", "setting": "compound 0.000999 µM", "result": "53.2% and 55.8% and 56.2%"}, {"measurement": "viability, T/C", "setting": "compound 0.00316 µM", "result": "38.6% and 47.6% and 39.6%"}, {"measurement": "viability, T/C", "setting": "compound 0.00999 µM", "result": "42.5% and 37.8% and 43.5%"}, {"measurement": "viability, T/C", "setting": "compound 0.0316 µM", "result": "36.8% and 46.3% and 25.2%"}, {"measurement": "viability, T/C", "setting": "compound 0.0999 µM", "result": "33.3% and 47.4% and 35.1%"}, {"measurement": "viability, T/C", "setting": "compound 0.316 µM", "result": "34% and 43.8% and 29.1%"}, {"measurement": "IC50", "setting": "curve of compound", "result": "< 0.000999 µM and 0.00117 µM and 0.00164 µM"}]}
{"molecule": "O=C(NO)c1cnc(N2CCN(S(=O)(=O)c3ccc4ccccc4c3)CC2)nc1", "note": "+ Cc1cnc(CNC(=O)c2c(=O)c3ccc(N4CCCN(C)CC4)nc3n3c2sc2ccccc23)cn1", "values": [{"measurement": "IC50", "setting": "curve of first compound, second compound 0.0316 µM", "result": 0.824, "unit": "µM"}, {"measurement": "IC50", "setting": "curve of first compound, second compound 0.1 µM", "result": 1.64, "unit": "µM"}, {"measurement": "IC50", "setting": "curve of first compound, second compound 0.316 µM", "result": 1.65, "unit": "µM"}, {"measurement": "IC50", "setting": "curve of first compound, second compound 1 µM", "result": 1.73, "unit": "µM"}, {"measurement": "IC50", "setting": "curve of first compound, second compound 3.16 µM", "result": 1.46, "unit": "µM"}, {"measurement": "IC50", "setting": "curve of first compound, second compound 10 µM", "result": 0.574, "unit": "µM"}, {"measurement": "viability, T/C", "setting": "second compound 0.0316 µM, first compound 0.0316 µM", "result": 89.8, "unit": "%"}, {"measurement": "viability, T/C", "setting": "second compound 0.0316 µM, first compound 0.1 µM", "result": 75.8, "unit": "%"}, {"measurement": "viability, T/C", "setting": "second compound 0.0316 µM, first compound 0.316 µM", "result": 60.2, "unit": "%"}, {"measurement": "viability, T/C", "setting": "second compound 0.0316 µM, first compound 1 µM", "result": 43, "unit": "%"}, {"measurement": "viability, T/C", "setting": "second compound 0.0316 µM, first compound 3.16 µM", "result": 42, "unit": "%"}, {"measurement": "viability, T/C", "setting": "second compound 0.0316 µM, first compound 10 µM", "result": 2.99, "unit": "%"}, {"measurement": "viability, T/C", "setting": "second compound 0.1 µM, first compound 0.0316 µM", "result": 86.4, "unit": "%"}, {"measurement": "viability, T/C", "setting": "second compound 0.1 µM, first compound 0.1 µM", "result": 75.1, "unit": "%"}, {"measurement": "viability, T/C", "setting": "second compound 0.1 µM, first compound 0.316 µM", "result": 93.6, "unit": "%"}, {"measurement": "viability, T/C", "setting": "second compound 0.1 µM, first compound 1 µM", "result": 49.1, "unit": "%"}, {"measurement": "viability, T/C", "setting": "second compound 0.1 µM, first compound 3.16 µM", "result": 40.2, "unit": "%"}, {"measurement": "viability, T/C", "setting": "second compound 0.1 µM, first compound 10 µM", "result": 5.96, "unit": "%"}, {"measurement": "viability, T/C", "setting": "second compound 0.316 µM, first compound 0.0316 µM", "result": 90.9, "unit": "%"}, {"measurement": "viability, T/C", "setting": "second compound 0.316 µM, first compound 0.1 µM", "result": 84, "unit": "%"}, {"measurement": "viability, T/C", "setting": "second compound 0.316 µM, first compound 0.316 µM", "result": 85.9, "unit": "%"}, {"measurement": "viability, T/C", "setting": "second compound 0.316 µM, first compound 1 µM", "result": 52.7, "unit": "%"}, {"measurement": "viability, T/C", "setting": "second compound 0.316 µM, first compound 3.16 µM", "result": 39.9, "unit": "%"}, {"measurement": "viability, T/C", "setting": "second compound 0.316 µM, first compound 10 µM", "result": 6.44, "unit": "%"}, {"measurement": "viability, T/C", "setting": "second compound 1 µM, first compound 0.0316 µM", "result": 71.9, "unit": "%"}, {"measurement": "viability, T/C", "setting": "second compound 1 µM, first compound 0.1 µM", "result": 86.8, "unit": "%"}, {"measurement": "viability, T/C", "setting": "second compound 1 µM, first compound 0.316 µM", "result": 82.2, "unit": "%"}, {"measurement": "viability, T/C", "setting": "second compound 1 µM, first compound 1 µM", "result": 63.1, "unit": "%"}, {"measurement": "viability, T/C", "setting": "second compound 1 µM, first compound 3.16 µM", "result": 33.5, "unit": "%"}, {"measurement": "viability, T/C", "setting": "second compound 1 µM, first compound 10 µM", "result": 4.12, "unit": "%"}, {"measurement": "viability, T/C", "setting": "second compound 3.16 µM, first compound 0.0316 µM", "result": 70.5, "unit": "%"}, {"measurement": "viability, T/C", "setting": "second compound 3.16 µM, first compound 0.1 µM", "result": 91.8, "unit": "%"}, {"measurement": "viability, T/C", "setting": "second compound 3.16 µM, first compound 0.316 µM", "result": 63.5, "unit": "%"}, {"measurement": "viability, T/C", "setting": "second compound 3.16 µM, first compound 1 µM", "result": 56.9, "unit": "%"}, {"measurement": "viability, T/C", "setting": "second compound 3.16 µM, first compound 3.16 µM", "result": 35.7, "unit": "%"}, {"measurement": "viability, T/C", "setting": "second compound 3.16 µM, first compound 10 µM", "result": 0.26, "unit": "%"}, {"measurement": "viability, T/C", "setting": "second compound 10 µM, first compound 0.0316 µM", "result": 72.3, "unit": "%"}, {"measurement": "viability, T/C", "setting": "second compound 10 µM, first compound 0.1 µM", "result": 74.6, "unit": "%"}, {"measurement": "viability, T/C", "setting": "second compound 10 µM, first compound 0.316 µM", "result": 65.1, "unit": "%"}, {"measurement": "viability, T/C", "setting": "second compound 10 µM, first compound 1 µM", "result": 33.4, "unit": "%"}, {"measurement": "viability, T/C", "setting": "second compound 10 µM, first compound 3.16 µM", "result": 21, "unit": "%"}, {"measurement": "viability, T/C", "setting": "second compound 10 µM, first compound 10 µM", "result": 0.26, "unit": "%"}]}
{"molecule": "COc1cc(C2c3cc4c(cc3C(OC3OC5COC(C)OC5C(O)C3O)C3COC(=O)C23)OCO4)cc(OC)c1O", "note": "(stereo unspecified)", "values": [{"measurement": "viability, T/C", "setting": "compound 0.0316 µM", "result": "102% and 106% and 103%"}, {"measurement": "viability, T/C", "setting": "compound 0.1 µM", "result": "84% and 84.1% and 90.4%"}, {"measurement": "viability, T/C", "setting": "compound 0.316 µM", "result": "72.1% and 81.7% and 80.7%"}, {"measurement": "viability, T/C", "setting": "compound 1 µM", "result": "62.7% and 51.7% and 55.9%"}, {"measurement": "viability, T/C", "setting": "compound 3.16 µM", "result": "40.4% and 40.3% and 45%"}, {"measurement": "viability, T/C", "setting": "compound 10 µM", "result": "38% and 35.9% and 40.2%"}, {"measurement": "IC50", "setting": "curve of compound", "result": "2.16 µM and 1.55 µM and 2 µM"}]}
